The text below walks through data of article PMC3549253, “Effect of repetitive lysine–tryptophan motifs on the bactericidal activity of antimicrobial peptides” (Amino Acids, 2012).

Values after ≈ are worked out from the molar mass of the structure shown. Where two headings read alike, the source gives them in different places.

For test [1], the system named is all 16 microbial strains. Nature of the test: Mean MIC over all strains and therapeutic index. Format: cell-based. The following applies: MIC values in PBS from all 16 microbial strains; 400 μM used when no activity at 200 μM. The method, then:
(§1) The antibacterial activities of the peptides against Gram-negative, Gram-positive and antibiotic-resistant bacterial strains were evaluated using the microbroth dilution method (Park et al. [2003]). Aliquots of culture medium containing bacterial suspensions in mid-logarithmic phase at a concentration of 2 × 10^5 colony forming units (CFU)/ml were added to each well of a multiwell plate containing peptide solution serially diluted 2× in 10 mM sodium phosphate buffer (pH 7.2) or phosphate-buffered saline (PBS, 1.5 mM KH2PO4, 2.7 mM KCl, 8.1 mM Na2HPO4, 150 mM NaCl, pH 7.2). Growth inhibition was evaluated by measuring the absorbance at 620 nm using a Versa-Max microplate Elisa Reader (Molecular Devices Co., Sunnyvale, CA, USA) after 24 h of incubation at 37° C.

The subject of test [2] is E. coli CCARM 1238. Nature of the test: microbe, parasite or virus in culture. Type of test: cell-based, Escherichia coli. The following applies: drug-resistant strain, 2 × 10^5 CFU/ml, 24 h at 37° C, average of 3–4 independent experiments.
Source text: (§2) Escherichia coli (KCTC 1682), Salmonella typhimurium (KCTC 1926), Pseudomonas aeruginosa (KCTC 1637), Staphylococcus aureus (KCTC 1621), Bacillus subtilis (KCTC 1918), and Listeria monocytogenes (KCTC 3710) were obtained from the Korean Collection for Type Cultures (KCTC). Drug-resistant E. coli strains (CCARM 1229 and CCARM 1238), S. typhimurium strains (CCARM 8007, CCARM 8009, and CCARM 8013), and S. aureus strains (CCARM 3089, CCARM 3090, CCARM 3108, CCARM 3114, and CCARM 3126) were from the Culture Collection of Antibiotic-Resistant Microbes (CCARM) at Seoul Women’s University, Korea.
as §1, with “C. […] All MIC measurements were the average of 3–4 independent experiments.” for “C.”

Test [3] deals with S. aureus CCARM 3090. Nature of the test: microbe, parasite or virus in culture. Format: cell-based, Staphylococcus aureus. The following applies: drug-resistant strain, 2 × 10^5 CFU/ml, 24 h at 37° C, average of 3–4 independent experiments.
Source text: as §2
as §1, with “C. […] All MIC measurements were the average of 3–4 independent experiments.” for “C.”

Test [4] deals with S. aureus CCARM 3114. Briefly: microbe, parasite or virus in culture. Type of test: cell-based, Staphylococcus aureus. The following applies: drug-resistant strain, 2 × 10^5 CFU/ml, 24 h at 37° C, average of 3–4 independent experiments.
Source text: as §2
as §1, with “C. […] All MIC measurements were the average of 3–4 independent experiments.” for “C.”

The test system of test [5] is S. aureus CCARM 3089. Nature of the test: microbe, parasite or virus in culture. Type of test: cell-based, Staphylococcus aureus. The conditions noted are these: drug-resistant strain, 2 × 10^5 CFU/ml, 24 h at 37° C, average of 3–4 independent experiments.
Source text: as §2
as §1, with “C. […] All MIC measurements were the average of 3–4 independent experiments.” for “C.”

Test [6] concerns S. aureus CCARM 3108. Nature of the test: microbe, parasite or virus in culture. Format: cell-based, Staphylococcus aureus. The conditions noted are these: drug-resistant strain, 2 × 10^5 CFU/ml, 24 h at 37° C, average of 3–4 independent experiments.
Source text: as §2
as §1, with “C. […] All MIC measurements were the average of 3–4 independent experiments.” for “C.”

Test [7] relates to S. aureus CCARM 3126. Briefly: microbe, parasite or virus in culture. The following applies: drug-resistant strain, 2 × 10^5 CFU/ml, 24 h at 37° C, average of 3–4 independent experiments.
Source text: as §2, §1

In test [8] the test system is S. typhimurium CCARM 8013. Nature of the test: microbe, parasite or virus in culture. Type of test: cell-based, Salmonella typhimurium. The following applies: drug-resistant strain, 2 × 10^5 CFU/ml, 24 h at 37° C, average of 3–4 independent experiments, read-out: MIC.
Source text: as §2
as §1, with “C. […] All MIC measurements were the average of 3–4 independent experiments.” for “C.”

The test system of test [9] is S. typhimurium CCARM 8007. Nature of the test: microbe, parasite or virus in culture. Format: cell-based, Salmonella typhimurium. The conditions noted are these: drug-resistant strain, 2 × 10^5 CFU/ml, 24 h at 37° C, average of 3–4 independent experiments, read-out: MIC.
Source text: as §2
as §1, with “C. […] All MIC measurements were the average of 3–4 independent experiments.” for “C.”

Test [10] relates to S. typhimurium CCARM 8009. Nature of the test: microbe, parasite or virus in culture. The conditions noted are these: drug-resistant strain, 2 × 10^5 CFU/ml, 24 h at 37° C, average of 3–4 independent experiments, read-out: MIC. Type of test: cell-based, Salmonella typhimurium.
Source text: as §2
as §1, with “C. […] All MIC measurements were the average of 3–4 independent experiments.” for “C.”

Where [11] appears, read: 10 mM sodium phosphate buffer, pH 7.2.
Setting [12] is: PBS, pH 7.2 (number in parentheses).

Take `CC[C@H](C)[C@H](NC(=O)CN)C(=O)NCC(=O)N[C@@H](C)C(=O)N[C@H](C(=O)N[C@@H](CC(C)C)C(=O)N[C@@H](CCCCN)C(=O)N[C@H](C(=O)N[C@@H](CC(C)C)C(=O)N[C@H](C(=O)N[C@H](C(=O)NCC(=O)N[C@@H](CC(C)C)C(=O)N1CCC[C@H]1C(=O)N[C@@H](C)C(=O)N[C@@H](CC(C)C)C(=O)N[C@H](C(=O)N[C@@H](CO)C(=O)N[C@@H](Cc1c[nH]c2ccccc12)C(=O)N[C@H](C(=O)N[C@@H](CCCCN)C(=O)N[C@@H](CCCNC(=N)N)C(=O)N[C@@H](CCCCN)C(=O)N[C@@H](CCCNC(=N)N)C(=O)N[C@@H](CCC(N)=O)C(=O)N[C@@H](CCC(N)=O)C(N)=O)[C@@H](C)CC)[C@@H](C)CC)[C@@H](C)O)[C@@H](C)O)C(C)C)C(C)C` [Melittin, reference compound]: the “GM (geometric mean of MIC values)” value in test [1] came out at 3.6 µM. For the same compound, the MIC in test [2] (setting [11]) is 1.56 (1.56) μM; in test [2] (setting [12]) it was 1.56 (1.56) μM; in test [3] (setting [11]), 3.12 (3.12) μM; in test [3] (setting [12]) it was 3.12 (3.12) μM; in [4] (setting [11]) it was 3.12 (3.12) μM; in [4] (setting [12]), 3.12 (3.12) μM. For the same compound, the MIC in test [5] (setting [11]), in test [5] (setting [12]), in test [6] (setting [11]), in test [6] (setting [12]), in test [7] (setting [11]) and in [7] (setting [12]) was 1.56 (1.56) μM throughout. Further, the MIC in [8] (setting [11]) is given as 3.12 µM (≈ 8.88 µg/mL); in test [8] (setting [12]) it was 6.25 µM (≈ 17.8 µg/mL); in [9] (setting [11]) it was 6.25 µM (≈ 17.8 µg/mL); in [9] (setting [12]), 12.5 µM (≈ 35.6 µg/mL); in test [10] (setting [11]), 6.25 µM (≈ 17.8 µg/mL); in test [10] (setting [12]), 12.5 µM (≈ 35.6 µg/mL).
